In this test the target is T1, chimeric human H3 receptor (Homo sapiens, UniProt Q9Y5N1).
T1 construct: rat Galpha-i2 (Gnai2, rat); made in house; host or cells: Sf9 insect cells (baculovirus); P2 membranes
The test is described as follows: Chimeric human H3 receptor screening GTP binding assay (inhibition of histamine-stimulated GTP-gamma35S binding, Example 8). The note with it: 1 h; assay of Example 8; symbol "!" in column headed Ki; read-out: percent inhibition of agonist-induced GTP-gammaS binding to H3. It counts as biochemical. A digest of the protocol:
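Sf9 membranes co-expressing chimeric human H3 receptor and heterotrimeric G-protein (35 μg protein) incubated 60 min at room temperature with 4 μM compound, 1 μM histamine and 125 pM GTP-gamma35S in pH 7.4 buffer with 10 μM GDP. Filter-bound radioactivity, nonspecific (10 μM GTP-gammaS) subtracted, reported as % inhibition of histamine signal.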

The results in this text go back to patent publication US20080051387A1, “TETRAHYDROPYRIDO[3,4-D]PYRIMIDINES AND RELATED ANALOGUES” (priority 2006, published 2008).

T1 sequence (Q9Y5N1 with tags, fused parts or gaps): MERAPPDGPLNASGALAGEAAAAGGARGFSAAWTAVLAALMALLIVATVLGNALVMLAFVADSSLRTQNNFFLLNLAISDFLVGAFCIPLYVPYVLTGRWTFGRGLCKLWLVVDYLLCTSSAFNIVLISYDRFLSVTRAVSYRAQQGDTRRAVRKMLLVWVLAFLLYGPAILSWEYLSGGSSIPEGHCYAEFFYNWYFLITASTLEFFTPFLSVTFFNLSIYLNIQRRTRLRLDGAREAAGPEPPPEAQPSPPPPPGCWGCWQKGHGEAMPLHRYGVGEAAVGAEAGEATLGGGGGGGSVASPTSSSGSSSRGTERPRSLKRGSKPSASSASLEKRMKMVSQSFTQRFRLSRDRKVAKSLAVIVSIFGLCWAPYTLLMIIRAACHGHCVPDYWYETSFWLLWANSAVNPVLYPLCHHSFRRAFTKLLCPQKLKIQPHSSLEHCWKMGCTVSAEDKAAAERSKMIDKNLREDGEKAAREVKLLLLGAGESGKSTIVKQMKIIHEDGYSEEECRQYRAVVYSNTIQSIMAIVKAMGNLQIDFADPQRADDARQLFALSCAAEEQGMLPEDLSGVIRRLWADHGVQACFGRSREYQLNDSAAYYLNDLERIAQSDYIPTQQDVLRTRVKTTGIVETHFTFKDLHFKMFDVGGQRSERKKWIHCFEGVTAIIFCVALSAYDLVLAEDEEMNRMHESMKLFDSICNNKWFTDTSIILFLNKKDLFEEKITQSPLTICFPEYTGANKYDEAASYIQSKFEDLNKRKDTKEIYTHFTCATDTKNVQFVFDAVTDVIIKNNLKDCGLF

By inhibition is commonly meant the share of the control response that was lost under treatment. `COc1ccc(OC)c(CN2CCc3cnc(N4CCN(C5CCC5)CC4)nc3CC2)c1` [Compound 261, 2-(4-cyclobutylpiperazin-1-yl)-7-(2,5-dimethoxybenzyl)-6,7,8,9-tetrahydro-5H-pyrimido[4,5-d]azepine]: the inhibition at 4 µM is not below 90%. On to `CCn1cncc1CN1CCc2cnc(N3CCN(C4CCC4)CC3)nc2CC1` [Compound 262, 2-(4-cyclobutylpiperazin-1-yl)-7-[(1-ethyl-1H-imidazol-5-yl)methyl]-6,7,8,9-tetrahydro-5H-pyrimido[4,5-d]azepine], for which the inhibition at 4 µM is not below 90%. The value for `c1cc(N2CCCC2)ncc1CN1CCc2cnc(N3CCN(C4CCC4)CC3)nc2CC1` [Compound 263, 2-(4-cyclobutylpiperazin-1-yl)-7-[(6-pyrrolidin-1-ylpyridin-3-yl)methyl]-6,7,8,9-tetrahydro-5H-pyrimido[4,5-d]azepine] was not below 90%; that for `Cc1c(F)cccc1CN1CCc2cnc(N3CCN(C4CCC4)CC3)nc2CC1` [Compound 264, 2-(4-cyclobutylpiperazin-1-yl)-7-(3-fluoro-2-methylbenzyl)-6,7,8,9-tetrahydro-5H-pyrimido[4,5-d]azepine] was not below 90%. As for `Clc1ccccc1CN1CCc2cnc(N3CCN(C4CCC4)CC3)nc2CC1` [Compound 265, 7-(2-chlorobenzyl)-2-(4-cyclobutylpiperazin-1-yl)-6,7,8,9-tetrahydro-5H-pyrimido[4,5-d]azepine], the inhibition at 4 µM was not below 90%. Consider `Clc1ccc(CN2CCc3cnc(N4CCN(C5CCC5)CC4)nc3CC2)c(Cl)c1` [Compound 266, 2-(4-cyclobutylpiperazin-1-yl)-7-(2,4-dichlorobenzyl)-6,7,8,9-tetrahydro-5H-pyrimido[4,5-d]azepine], for which the inhibition at 4 µM is not below 90%. Turning to `c1cc(N2CCCC2)ccc1CN1CCc2cnc(N3CCN(C4CCC4)CC3)nc2CC1` [Compound 267, 2-(4-cyclobutylpiperazin-1-yl)-7-(4-pyrrolidin-1-ylbenzyl)-6,7,8,9-tetrahydro-5H-pyrimido[4,5-d]azepine], the inhibition at 4 µM is not below 90%. Take `N#Cc1ccc(C(=O)N2CCc3cnc(N4CCN(C5CCC5)CC4)nc3CC2)cc1` [Compound 268, 4-{[2-(4-cyclobutylpiperazin-1-yl)-5,6,8,9-tetrahydro-7H-pyrimido[4,5-d]azepin-7-yl]carbonyl}benzonitrile]: the inhibition at 4 µM is not below 90%. Turning to `O=C(c1ccc(C(F)(F)F)cc1)N1CCc2cnc(N3CCN(C4CCC4)CC3)nc2CC1` [Compound 269, 2-(4-cyclobutylpiperazin-1-yl)-7-[4-(trifluoromethyl)benzoyl]-6,7,8,9-tetrahydro-5H-pyrimido[4,5-d]azepine], the inhibition at 4 µM was not below 90%. For the compound `COc1nc(N2CCN(C3CCC3)CC2)nc2c1CCN(C(=O)c1ccccc1)CC2` [Compound 270, 7-benzoyl-2-(4-cyclobutylpiperazin-1-yl)-4-methoxy-6,7,8,9-tetrahydro-5H-pyrimido[4,5-d]azepine], the inhibition at 4 µM was not below 90%. In the case of `c1nc2c(c(N3CCN(C4CCC4)CC3)n1)CCN(CC1CCOCC1)CC2` [Compound 271, 4-(4-cyclobutylpiperazin-1-yl)-7-(tetrahydro-2H-pyran-4-ylmethyl)-6,7,8,9-tetrahydro-5H-pyrimido[4,5-d]azepine], the inhibition at 4 µM is not below 90%. Turning to `c1nc(N2CCN(C3CCC3)CC2)nc2c1CCN(CC1CCOCC1)CC2` [Compound 272, 2-(4-cyclobutylpiperazin-1-yl)-7-(tetrahydro-2H-pyran-4-ylmethyl)-6,7,8,9-tetrahydro-5H-pyrimido[4,5-d]azepine], the inhibition at 4 µM was not below 90%.

Take `COc1cccc(CC(=O)N2CCc3cnc(N4CCN(C5CCC5)CC4)nc3CC2)c1` [Compound 273, 2-(4-cyclobutylpiperazin-1-yl)-7-[(3-methoxyphenyl)acetyl]-6,7,8,9-tetrahydro-5H-pyrimido[4,5-d]azepine]: the inhibition at 4 µM is not below 90%.

Turning to `COc1ccc(CC(=O)N2CCc3cnc(N4CCN(C5CCC5)CC4)nc3CC2)cc1` [Compound 274, 2-(4-cyclobutylpiperazin-1-yl)-7-[(4-methoxyphenyl)acetyl]-6,7,8,9-tetrahydro-5H-pyrimido[4,5-d]azepine], the inhibition at 4 µM is not below 90%.

For `CCOc1ccc(CC(=O)N2CCc3cnc(N4CCN(C5CCC5)CC4)nc3CC2)cc1OC` [Compound 275, 2-(4-cyclobutylpiperazin-1-yl)-7-[(4-ethoxy-3-methoxyphenyl)acetyl]-6,7,8,9-tetrahydro-5H-pyrimido[4,5-d]azepine], the inhibition at 4 µM was not below 90%. For `COc1cc(CC(=O)N2CCc3cnc(N4CCN(C5CCC5)CC4)nc3CC2)cc(OC)c1OC` [Compound 276, 2-(4-cyclobutylpiperazin-1-yl)-7-[(3,4,5-trimethoxyphenyl)acetyl]-6,7,8,9-tetrahydro-5H-pyrimido[4,5-d]azepine], the inhibition at 4 µM is not below 90%.

In the case of `O=C(Cc1ccc2c(c1)OCO2)N1CCc2cnc(N3CCN(C4CCC4)CC3)nc2CC1` [Compound 277, 7-(1,3-benzodioxol-5-ylacetyl)-2-(4-cyclobutylpiperazin-1-yl)-6,7,8,9-tetrahydro-5H-pyrimido[4,5-d]azepine], the inhibition at 4 µM was not below 90%. On to `O=C(Cc1ccc(OC(F)(F)F)cc1)N1CCc2cnc(N3CCN(C4CCC4)CC3)nc2CC1` [Compound 278, 2-(4-cyclobutylpiperazin-1-yl)-7-{[4-(trifluoromethoxy)phenyl]acetyl}-6,7,8,9-tetrahydro-5H-pyrimido[4,5-d]azepine], for which the inhibition at 4 µM is not below 90%.

On to `O=C(Cc1cccc(OC(F)(F)F)c1)N1CCc2cnc(N3CCN(C4CCC4)CC3)nc2CC1` [Compound 279, 2-(4-cyclobutylpiperazin-1-yl)-7-{[3-(trifluoromethoxy)phenyl]acetyl}-6,7,8,9-tetrahydro-5H-pyrimido[4,5-d]azepine], for which the inhibition at 4 µM is not below 90%. Consider `COc1cc(CC(=O)N2CCc3cnc(N4CCN(C5CCC5)CC4)nc3CC2)cc(OC)c1` [Compound 280, 2-(4-cyclobutylpiperazin-1-yl)-7-[(3,5-dimethoxyphenyl)acetyl]-6,7,8,9-tetrahydro-5H-pyrimido[4,5-d]azepine], for which the inhibition at 4 µM was not below 90%. Take `COc1ccc(CC(=O)N2CCc3cnc(N4CCN(C5CCC5)CC4)nc3CC2)cc1OC` [Compound 281, 2-(4-cyclobutylpiperazin-1-yl)-7-[(3,4-dimethoxyphenyl)acetyl]-6,7,8,9-tetrahydro-5H-pyrimido[4,5-d]azepine]: the inhibition at 4 µM was not below 90%. For the compound `O=C(Cc1cccc(Oc2ccccc2)c1)N1CCc2cnc(N3CCN(C4CCC4)CC3)nc2CC1` [Compound 282, 2-(4-cyclobutylpiperazin-1-yl)-7-[(3-phenoxyphenyl)acetyl]-6,7,8,9-tetrahydro-5H-pyrimido[4,5-d]azepine], the inhibition at 4 µM is not below 90%.

For `O=C(Cc1ccc(Oc2ccccc2)cc1)N1CCc2cnc(N3CCN(C4CCC4)CC3)nc2CC1` [Compound 283, 2-(4-cyclobutylpiperazin-1-yl)-7-[(4-phenoxyphenyl)acetyl]-6,7,8,9-tetrahydro-5H-pyrimido[4,5-d]azepine], the inhibition at 4 µM was not below 90%.

`O=C(Cc1cccc(Cl)c1)N1CCc2cnc(N3CCN(C4CCC4)CC3)nc2CC1` [Compound 284, 7-[(3-chlorophenyl)acetyl]-2-(4-cyclobutylpiperazin-1-yl)-6,7,8,9-tetrahydro-5H-pyrimido[4,5-d]azepine]: the inhibition at 4 µM was not below 90%. In the case of `O=C(Cc1ccc(Cl)cc1)N1CCc2cnc(N3CCN(C4CCC4)CC3)nc2CC1` [Compound 285, 7-[(4-chlorophenyl)acetyl]-2-(4-cyclobutylpiperazin-1-yl)-6,7,8,9-tetrahydro-5H-pyrimido[4,5-d]azepine], the inhibition at 4 µM was not below 90%. For `O=C(Cc1ccc(F)cc1F)N1CCc2cnc(N3CCN(C4CCC4)CC3)nc2CC1` [Compound 286, 2-(4-cyclobutylpiperazin-1-yl)-7-[(2,4-difluorophenyl)acetyl]-6,7,8,9-tetrahydro-5H-pyrimido[4,5-d]azepine], the inhibition at 4 µM is not below 90%. Take `O=C(Cc1ccc(C(F)(F)F)cc1)N1CCc2cnc(N3CCN(C4CCC4)CC3)nc2CC1` [Compound 287, 2-(4-cyclobutylpiperazin-1-yl)-7-{[4-(trifluoromethyl)phenyl]acetyl}-6,7,8,9-tetrahydro-5H-pyrimido[4,5-d]azepine]: the inhibition at 4 µM is not below 90%. With `O=C(Cc1cccc(C(F)(F)F)c1)N1CCc2cnc(N3CCN(C4CCC4)CC3)nc2CC1` [Compound 288, 2-(4-cyclobutylpiperazin-1-yl)-7-{[3-(trifluoromethyl)phenyl]acetyl}-6,7,8,9-tetrahydro-5H-pyrimido[4,5-d]azepine], the inhibition at 4 µM was not below 90%. In the case of `O=C(Cc1cccc(Br)c1)N1CCc2cnc(N3CCN(C4CCC4)CC3)nc2CC1` [Compound 289, 7-[(3-bromophenyl)acetyl]-2-(4-cyclobutylpiperazin-1-yl)-6,7,8,9-tetrahydro-5H-pyrimido[4,5-d]azepine], the inhibition at 4 µM was not below 90%.

As to `O=C(Cc1ccc(Br)cc1)N1CCc2cnc(N3CCN(C4CCC4)CC3)nc2CC1` [Compound 290, 7-[(4-bromophenyl)acetyl]-2-(4-cyclobutylpiperazin-1-yl)-6,7,8,9-tetrahydro-5H-pyrimido[4,5-d]azepine], the inhibition at 4 µM was not below 90%.

As for `O=C(Cc1c(F)cccc1F)N1CCc2cnc(N3CCN(C4CCC4)CC3)nc2CC1` [Compound 291, 2-(4-cyclobutylpiperazin-1-yl)-7-[(2,6-difluorophenyl)acetyl]-6,7,8,9-tetrahydro-5H-pyrimido[4,5-d]azepine], the inhibition at 4 µM is not below 90%. Regarding `O=C(Cc1cccc(C(F)(F)F)c1F)N1CCc2cnc(N3CCN(C4CCC4)CC3)nc2CC1` [Compound 292, 2-(4-cyclobutylpiperazin-1-yl)-7-{[2-fluoro-3-(trifluoromethyl)phenyl]acetyl}-6,7,8,9-tetrahydro-5H-pyrimido[4,5-d]azepine], the inhibition at 4 µM was not below 90%.
